Reference: patent US7820665B2, “Imidazopyridazine inhibitors of PI3 kinase for cancer treatment” (Amgen Inc., priority 2007, dated 2010)

Tests used:
PI3Kα = molecular target: T1, PI3Kα (Homo sapiens, UniProt P42336); assay: In vitro PI3 kinase enzyme assay (PI3K ATPLoss); assay type: biochemical; conditions: recombinant p110α/p85, residual ATP by bioluminescence
T1 construct: Full length p110 subunits of PI3K α, β and δ, N-terminally labeled with polyHis tag; polyHis (N); made in house; host or cells: Sf9 insect cells (baculovirus)
T1 sequence (P42336 whole entry, species assumed): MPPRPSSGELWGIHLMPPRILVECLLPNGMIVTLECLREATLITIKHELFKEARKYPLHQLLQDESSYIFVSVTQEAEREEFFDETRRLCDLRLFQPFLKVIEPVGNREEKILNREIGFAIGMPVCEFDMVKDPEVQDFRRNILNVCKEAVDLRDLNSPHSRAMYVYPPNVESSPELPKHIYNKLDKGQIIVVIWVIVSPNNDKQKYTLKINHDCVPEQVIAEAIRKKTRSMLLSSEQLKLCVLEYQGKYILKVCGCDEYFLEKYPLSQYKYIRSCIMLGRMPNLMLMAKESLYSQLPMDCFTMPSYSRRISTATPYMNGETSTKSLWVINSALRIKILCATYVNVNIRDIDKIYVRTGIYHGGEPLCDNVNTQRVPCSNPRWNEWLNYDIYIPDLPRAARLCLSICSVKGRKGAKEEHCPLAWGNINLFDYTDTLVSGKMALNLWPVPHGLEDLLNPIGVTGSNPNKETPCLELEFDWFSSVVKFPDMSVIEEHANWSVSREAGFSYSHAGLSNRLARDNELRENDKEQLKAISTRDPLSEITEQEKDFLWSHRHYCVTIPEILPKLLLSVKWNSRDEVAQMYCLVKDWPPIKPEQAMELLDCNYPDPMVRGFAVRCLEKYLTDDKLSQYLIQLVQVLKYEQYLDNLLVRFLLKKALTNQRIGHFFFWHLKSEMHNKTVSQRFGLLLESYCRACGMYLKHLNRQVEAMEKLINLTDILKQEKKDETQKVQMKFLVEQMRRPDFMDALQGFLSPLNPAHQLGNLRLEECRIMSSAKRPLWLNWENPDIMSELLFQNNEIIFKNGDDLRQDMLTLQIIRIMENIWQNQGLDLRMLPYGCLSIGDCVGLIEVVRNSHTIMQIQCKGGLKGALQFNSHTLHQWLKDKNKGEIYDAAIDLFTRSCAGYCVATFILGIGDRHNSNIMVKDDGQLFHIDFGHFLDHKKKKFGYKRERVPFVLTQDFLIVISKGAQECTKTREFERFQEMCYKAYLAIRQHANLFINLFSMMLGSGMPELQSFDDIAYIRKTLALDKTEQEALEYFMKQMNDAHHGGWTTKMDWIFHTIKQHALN
T1 sequence (P27986 whole entry partner, species assumed): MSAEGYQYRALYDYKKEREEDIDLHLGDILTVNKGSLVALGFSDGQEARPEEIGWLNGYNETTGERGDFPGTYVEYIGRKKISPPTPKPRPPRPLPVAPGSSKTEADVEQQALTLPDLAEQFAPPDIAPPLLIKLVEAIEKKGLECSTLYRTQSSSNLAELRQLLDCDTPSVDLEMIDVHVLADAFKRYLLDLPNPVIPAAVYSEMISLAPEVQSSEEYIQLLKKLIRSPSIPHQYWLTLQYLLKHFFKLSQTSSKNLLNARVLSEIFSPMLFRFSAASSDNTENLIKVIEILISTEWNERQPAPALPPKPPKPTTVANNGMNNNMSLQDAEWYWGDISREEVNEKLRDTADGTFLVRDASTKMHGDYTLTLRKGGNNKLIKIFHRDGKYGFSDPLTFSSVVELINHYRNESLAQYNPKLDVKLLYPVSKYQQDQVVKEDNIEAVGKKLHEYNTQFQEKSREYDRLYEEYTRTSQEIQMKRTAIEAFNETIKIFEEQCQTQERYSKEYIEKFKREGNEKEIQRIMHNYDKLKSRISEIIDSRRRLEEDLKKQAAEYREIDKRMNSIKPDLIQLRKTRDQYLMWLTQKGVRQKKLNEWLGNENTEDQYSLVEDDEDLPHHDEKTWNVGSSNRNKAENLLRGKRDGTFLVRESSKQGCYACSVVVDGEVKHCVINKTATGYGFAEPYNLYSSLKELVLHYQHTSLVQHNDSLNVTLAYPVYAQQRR
Protocol: Full length p110 subunits of PI3K α, β and δ, N-terminally labeled with polyHis tag, can be co-expressed with p85 with Baculo virus expression vectors in sf9 insect cells. P110/p85 heterodimers can be purified by sequential Ni-NTA, Q-HP, Superdex-100 chromatography. Purified α, β and δ isozymes can be stored at −20° C. in 20 mM Tris, pH 8, 0.2M NaCl, 50% glycerol, 5 mM DTT, 2 mM Na cholate. Truncated PI3Kγ, residues 114-1102, N-terminally labeled with polyHis tag, can be expressed with Baculo virus in Hi5 insect cells. The γ isozyme can be purified by sequential Ni-NTA, Superdex-200, Q-HP chromatography. The γ isozyme can be stored frozen at −80° C. in NaH2PO4, pH 8, 0.2M NaCl, 1% ethylene glycol, 2 mM β-mercaptoethanol.
PI3K enzyme assays (alpha, beta, delta and gamma) can be performed in 25 μL with the above final concentrations of components in white polyproplyene plates. Phosphatidyl inositol phosphoacceptor, PtdIns(4,5)P2 (e.g. P4508) can be obtained from Echelon Biosciences, Salt Lake City, Utah. The ATPase activity of the alpha and gamma isozymes may not be greatly stimulated by PtdIns(4,5)P2 under these conditions, it can be omitted from the assay of these isozymes. Test compounds can be dissolved in DMSO and diluted with three-fold serial dilutions. The compound in DMSO (1 μL) may be added per test well, and the inhibition relative to reactions containing no compound, with and without enzyme can be determined. After assay incubation at RT, the reaction can be stopped and residual ATP can be determined by addition of an equal volume of a commercial ATP bioluminescence kit (Perkin Elmer EasyLite, Perkin Elmer, Waltham, Mass.) according to the manufacturer's instructions, and detected using an Analyst GT luminometer.

[1] = system: Akt phosphorylation at Ser473 in HCT116 cells; assay: Cell-based phospho-AKT Ser473 assay (HCT116 Cell), MSD sandwich immunoassay; conditions: Homo sapiens, HCT-116, 2 h, read-out: HCT116 Cell IC50, HCT116 cells, 2 h compound, IGF-1 stimulation, pAkt Ser473;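 further: IGF-1 added at 100 ng/mL for 15 min after compound treatment, electrochemiluminescent readout of phospho-Akt, DMSO-only wells define maximum signal, IC50 reflects inhibition of phosphorylation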
Excerpt: This assay determines the ability of a compound to inhibit the phosphorylation of Serine 472 in Akt using a MSD based sandwich immunoassay (Meso Scale Detection, Meso Scale Discovery (MSD), Gaithersburg, Md.). HCT116 human colon carcinoma cell lines can be grown in McCoy's 5A growth medium (GIBCO, Carlsbad, Calif.) containing 10% FBS (GIBCO, Carlsbad, Calif.) and X1 Penicillin-streptomycin-glutamine (GIBCO, Carlsbad, Calif.). Prior to the assay, cells can be detached from the culture flask with trypsin, and re-suspended in complete media to give a final concentration of 1.6×10^5 cells per mL. Aliquots (100 μl) of the HCT116 cell suspension can be seeded into each well of a 96 well tissue culture plate to give a final density of 16,000 cells per well. Cells can then be incubated overnight at 37° C.
The following day the cells can be treated with serially diluted test compounds and incubated for 2 hours at 37° C. The culture media on the HCT 116 cells can be replaced with 189 μL McCoys media, supplemented with 0.1% BSA (ICN Biomedicals, Inc., Costa Mesa, Calif.). […] Aliquots (1 μL) of serially-diluted compounds can be transferred to 96 well tissue culture plates containing the HCT 116 cells. […] As a maximum response control, wells can contain 0.5% DMSO in place of compound. The plates can be mixed at 700 rpm for 2 min to ensure even distribution of the test compound and incubated for 2 hours at 37° C. Cells can then be stimulated with insulin-like growth factor 1 (Sigma, St Louis, Mo.) at final concentration of 100 ng/mL for 15 minutes at 37° C. The media can then be removed and the cells treated with 80 μL cell-lysis buffer (MSD) containing a cocktail of protease and phosphatase inhibitors for one hour at 4° C.
25 μL Cell lysate can then be transferred to pre-blocked MSD assay plates pre-coated with a capture antibody specific for Akt, and the plates can be incubated for 2 hours at room temperature. The cell lysates can then be removed and plates can then be washed four times with 200 μl per well of Tris wash buffer (500 mM Tris, PH 7.5, 1.5 M NaCl, 0.2% Tween-20). Subsequently cells can be incubated for 1 hour at room temperature with a 25 μL solution containing the detection antibody, anti-phospho Akt (Ser 473) labeled with an electrochemiluminescent compound (Meso Scale Discovery SULPHO-TAG™ label, MSD, Gaithersburg, Md.). The detection antibody can be removed and plates can then be washed four times with 200 μL per well of Tris wash buffer. An aliquot of 150 μL of diluted MSD read buffer can then be applied to each well, and the electrochemiluminescent signal can be measured using a MSD SECTOR™ plate reader (Meso Scale Discovery, Gaithersburg, Md.). This instrument measures the intensity of emitted light to determine a quantitative measure of phosphorylated Akt in each well. The dose-response data obtained with each compound can be analyzed and the IC50 inhibition of Akt phosphorylation at Ser473 can be calculated.

[2] = system: phosphorylation of Akt at Serine 473 in U87 MG cells; assay: pAkt AlphaScreen (U87 Cell); assay type: cell-based; conditions: Homo sapiens, U-87 MG, 2 h, 2 h compound, pAkt Ser473 AlphaScreen
Protocol: The pAkt AlphaScreen® assay (PerkinElmer, Waltham, Mass.) determines whether there is phosphorylation of Akt at Serine 473 by recruitment of a phosphospecific antibody. This assay was performed using U87 MG cells. The U87 growth media consists of MEM (Gibco, Carlsbad, Calif.) supplemented with 10% FBS (Gibco), 1× Non-Essential Amino Acids (Gibco) and 1× Penicillin/Streptomycin/Glutamine (Gibco). The cells were maintained weekly using 0.05% Trypsin (Gibco) and replated in 150 mm TC-Treated Culture Dishes (Corning, Corning, N.Y.).
The first day of the assay, the adherent cells were trypsinized, media was added to the loose cells and cells were mixed to a homogenous mixture. 0.5 ml of the homogenous mixture was counted on the Beckman Coulter® Vi-CELL™ XR (Fullerton, Calif.). 50 frames of cells were counted and the number of viable cells was determined. The cells were then diluted to 0.25 million cells per ml, and centrifuged at 200 rcf for 5 minutes. The media was removed and the cells were reconstituted in fresh media for plating. The cells were plated at 20 μl per well on the PerkinElmer® Flexprop PLUS in Low Volume 384 Well White Tissue Culture Plates (Corning) with a final cell density of 5K cells per well. The plates were incubated overnight at 37° Celsius, 5% CO2.
On the second day, the compound plates were prepared, the cells were treated with compound and the pAkt reaction mix was added to the cell lysate. 384 well compound plates were prepared containing 1 μl of compound per well starting at 5 mM and diluted 1:2 across the row, resulting in a 22 well serial dilution. 39 μl of growth media was added to the compound plate in rows 1-22 using the PerkinElmer® FlexDrop PLUS resulting in a DMSO concentration of 2.5%. The cell plates and diluted compound plates were put onto the VELOCITY11™ VPREP™ 384 ST where the compound plate was mixed and 5 μl of serially diluted compound or controls was added to the cell plate. The final concentration of the compounds was 25 μM serially diluted to 11.9 pM in 0.5% DMSO. The cell plates were then incubated with compound for two hours at 37° Celsius, 5% CO2. After two hours, the media in the cell plates was aspirated using the BioTek® ELx405HT plate washer (Winooski, Vt.) removing the majority of media and compound without disturbing the adherent U87 cells. The following assay reagents are components of the SureFire® Akt (Ser 473) Phosphorylation 50K Point Kit (TGR BioSciences, Adelaide, Australia) and an IgG Detection Kit (PerkinElmer, Waltham, Mass.). 5 μl of 1× Lysis Buffer was added to each well using the PerkinElmer® FlexDrop PLUS. The plates were then incubated at room temperature on a shaker for ten minutes. The AlphaScreen® reaction was prepared under low light conditions (subdued or green light) including p-Akt (Ser 473) Reaction Buffer, Dilution Buffer, Activation Buffer, Acceptor Beads and Donor Beads at a ratio of 40:20:10:1:1 respectively. The AlphaScreen® reaction was added to the cell lysate at 6 μl per well using the PerkinElmer® FlexDrop PLUS. The plates were placed in a humid environment to reduce edge effects and incubated overnight at room temperature with restricted air flow in the dark.
On the final day of the experiment, the plates were read on the PerkinElmer® EnVision™ 2103 Multilable Reader using the standard AlphaScreen® readout. The POC is calculated and the data is analyzed to report the IC50 IP for pAkt at Serine 473.

Row | SMILES | IC50 (PI3Kα) [nM] | IC50 [1] [nM] | IC50 [2] [nM]
1 | CC(=O)Nc1cn2nc(-c3cccc(NS(=O)(=O)c4ccc(C)cc4)c3)ccc2n1 [Example 1, N-(6-(3-(4-Methylphenylsulfonamido)phenyl)imidazo[1,2-b]pyridazin-2-yl)acetamide] | 55 | 214 | –
2 | CC(=O)Nc1cn2nc(-c3cccc(N(C)S(=O)(=O)c4ccc(C)cc4)c3)ccc2n1 [Example 2, N-(6-(3-(N,4-Dimethylphenylsulfonamido)phenyl)imidazo[1,2-b]pyridazin-2-yl)acetamide] | 98 | 462 | –
3 | CC(=O)Nc1cn2nc(-c3ccnc(Sc4ccccc4F)c3)ccc2n1 [Example 4, N-(6-(2-(2-Fluorophenylthio)pyridin-4-yl)imidazo[1,2-b]pyridazin-2-yl)acetamide] | 77 | 1140 | –
4 | CC(=O)Nc1cn2nc(-c3cccc(NS(=O)(=O)c4cccc5ccccc45)c3)ccc2n1 [Example 7, N-(6-(3-(Naphthalene-1-sulfonamido)phenyl)imidazo[1,2-b]pyridazin-2-yl)acetamide] | 62 | 456 | –
5 | CSc1cncc(-c2ccc3nc(NC(C)=O)cn3n2)c1 [Example 8, N-(6-(5-(Methylthio)pyridin-3-yl)imidazo[1,2-b]pyridazin-2-yl)acetamide] | 60 | 1200 | –
6 | CC(=O)Nc1cn2nc(-c3cncc(S(C)(=O)=O)c3)ccc2n1 [Example 10, N-(6-(5-(Methylsulfonyl)pyridin-3-yl)imidazo[1,2-b]pyridazin-2-yl)acetamide] | 104 | 869 | –
7 | CC(=O)Nc1cn2nc(-c3cncc(NS(=O)(=O)c4ccc(F)cc4)c3)ccc2n1 [Example 11, N-(6-(5-(4-Fluorophenylsulfonamido)pyridin-3-yl)imidazo[1,2-b]pyridazin-2-yl)acetamide] | 6 | 213 | –
8 | COc1ccc(S(=O)(=O)N(C)c2nccc(-c3ccc4nc(NC(C)=O)cn4c3)n2)cc1 [Example 13, N-(6-(2-(4-Methoxy-N-methylphenylsulfonamido)pyrimidin-4-yl)H-imidazo[1,2-a]pyridin-2-yl)acetamide] | 146 | 847 | –
9 | CC(=O)Nc1cn2cc(-c3cncc(NS(=O)(=O)c4ccc(F)cc4)c3)ccc2n1 [Example 15, N-(6-(5-(4-Fluorophenylsulfonamido)pyridin-3-yl)H-imidazo[1,2-a]pyridin-2-yl)acetamide] | 10 | 975 | –
10 | CC(=O)Nc1cn2cc(-c3cncc(NS(=O)(=O)C4CC4)c3)ccc2n1 [Example 16, N-(6-(5-(Cyclopropanesulfonamido)pyridin-3-yl)H-imidazo[1,2-a]pyridin-2-yl)acetamide] | 19 | 14400 | –
11 | CC(=O)Nc1cn2cc(-c3cncc(NS(C)(=O)=O)c3)ccc2n1 [Example 17, N-(6-(5-(Methylsulfonamido)pyridin-3-yl)H-imidazo[1,2-a]pyridin-2-yl)acetamide] | 37 | 29300 | –
12 | CS(=O)(=O)Nc1cc(-c2ccc3nc(N)c(-c4ccncc4)n3n2)cnc1Cl [Example 27, N-(5-(2-Amino-3-(pyridin-4-yl)imidazo[1,2-b]pyridazin-6-yl)-2-chloropyridin-3-yl)methanesulfonamide] | 154 | – | 3500

The remaining lines, values ahead:

Row | IC50 (PI3Kα) [nM] | IC50 [1] [nM] | IC50 [2] [nM] | SMILES
13 | 7 | 244 | – | CNC(C)c1ccc(S(=O)(=O)Nc2cc(-c3ccc4nc(NC(C)=O)cn4n3)cnc2Cl)cc1 (racemic) [Example 37, N-(6-(6-chloro-5-(4-(1-(methylamino)ethyl)phenylsulfonamido)pyridin-3-yl)imidazo[1,2-b]pyridazin-2-yl)acetamide]
14 | 6 | 124 | 31 | CNC(C)c1ccc(S(=O)(=O)Nc2cc(-c3ccc4nc(NC(C)=O)cn4n3)cnc2Cl)cc1 (single isomer, unassigned) [Example 38, N-(6-(6-chloro-5-(4-(1-(methylamino)ethyl)phenylsulfonamido)pyridin-3-yl)imidazo[1,2-b]pyridazin-2-yl)acetamide]
15 | 12 | 1100 | – | CC(=O)Nc1nc2cc(-c3cnc(Cl)c(NS(=O)(=O)c4ccc(F)cc4)c3)ccc2[nH]1 [Example 30, N-(5-(6-Chloro-5-(4-fluorophenylsulfonamido)pyridin-3-yl)-1H-benzo[d]imidazol-2-yl)acetamide]
16 | 8 | 868 | – | Nc1nc2ccc(-c3cnc(Cl)c(NS(=O)(=O)c4ccc(F)cc4)c3)cc2n1-c1ccccn1 [Example 31, N-(5-(2-Amino-1-(pyridin-2-yl)-1H-benzo[d]imidazol-6-yl)-2-chloropyridin-3-yl)-4-fluorobenzenesulfonamide]
17 | 49 | 2720 | – | CC(=O)Nc1nc2ccc(-c3cnc(Cl)c(NS(=O)(=O)c4ccc(F)cc4)c3)cc2n1-c1ccccn1 [Example 32, N-(6-(6-Chloro-5-(4-fluorophenylsulfonamido)pyridin-3-yl)-1-(pyridin-2-yl)-1H-benzo[d]imidazol-2-yl)acetamide]
18 | 6 | – | 5 | CC(=O)Nc1cn2nc(-c3cnc(Cl)c(NS(=O)(=O)c4ccc(C)cc4)c3)ccc2n1 [Example 42, N-(6-(6-Chloro-5-(4-methylphenylsulfonamido)pyridin-3-yl)imidazo[1,2-b]pyriadazin-2-yl)acetamide]
19 | 44 | – | 242 | COc1ccc(-c2ccc3nc(NC(C)=O)cn3n2)cc1OC [Example 43, N-(6-(3,4-Dimethoxyphenyl)imidazo[1,2-b]pyridazin-2-yl)acetamide]
20 | 691 | – | 523 | CC(=O)Nc1cn2nc(-c3cc(NS(=O)(=O)c4ccc(F)cc4)c(Cl)nn3)ccc2n1 [Example 52, N-(6-(6-Chloro-5-(4-fluorophenylsulfonamido)pyridazin-3-yl)imidazo[1,2-b]pyridazin-2-yl)acetamide]
